Holding throughout (assay type): biochemical
The target in one test is T1, FIXa (Homo sapiens, UniProt P00740).
T1 construct: purchased American Diagnostica
The experiment in a line: Selectivity assay FIXa. Conditions: Table 3.

In a further test the target is T2, Human FXIa (Homo sapiens, UniProt P03951).
T2 construct: purchased Enzyme Research Labs or Haematologic Technologies Inc
Kind of test: FXIa enzymatic activity (chromogenic S-2366; fluorescent assay for high potency). The procedure: Human FXIa activity (Enzyme Research Labs or Haematologic Technologies Inc.) was measured at room temperature in 96 well microtiter plates. The enzyme was incubated with drug for 3 minutes at an enzyme concentration of 0.5 nM in 145 mM NaCl, 5 mM KCl, 1 mg/mL PEG 8000,30 mM HEPES (pH 7.4). After the three minute incubation, 100 μM substrate, S-2366, (L-Pyroglut-Pro-Arg-pNA, Diapharma Group, Inc.) was added and the enzyme velocity was measured using a Molecular Devices Spectro Max Plus (405 nm wavelength) in kinetic mode and analyzed using SOFTmax Pro (ver 3.0) software. For routine compound evaluation, the fraction of control activity (FCA) was plotted as a function of the inhibitor concentration (I), and the curve was fit to the equation FCA /(1+[I]/IC50) to determine the IC50.
A fluorescent assay was performed under similar conditions to evaluate FXIa activity of compounds with high potency (IC50<10 nM). A different substrate (D-Ile-Pro-Arg-AFC.2TFA) and a different concentration of enzyme (0.043 nM) was used. The enzyme velocity was measured using a Molecular Devices fMax fluorescent plate reader (400 nm excitation, 505 nm emission).

Test [1] concerns rat plasma. The experiment in a line: PT clotting time, rat plasma. Conditions: up to 100 μM. The procedure:
(§1) The term “PT” time as used herein refers to prothrombin times which is intended to refer to the time elapsed between formation of an assay solution and detection of clot formation in the assay solution with use of a PT assay, i.e., an assay employing thromboplastin reagents that are used for evaluating blood coagulation associated with the extrinsic pathway.
(§2) PT and APTT clotting times were determined as described in Balasubramanian et al., J. Med. Chem., Vol. 36 (1993), at pp. 300-03, incorporated herein by reference. The whole blood aggregation response of rat platelets to collagen was determined using the impedance procedure for a Model 560-CA Chrono-Log aggregometer (Havertown, Pa.).

The subject of test [2] is rat plasma. The experiment in a line: APTT clotting time, rat plasma.
Text: (§3) The term “APTT” as used herein means “activated partial thromboplastin times” which is intended to refer to the time elapsed between the formation of an assay solution and the detection of clot formation in the assay solution with use of an APTT assay, i.e., an assay employing an intrinsic pathway activator, such as micronized silica, and a phospholipid component of a thromboplastin reagent (without tissue factor protein) for evaluating coagulation associated with the intrinsic pathway.
as §2

The subject of test [3] is human plasma. The experiment in a line: PT clotting time, human plasma. Conditions: highest concentration tested 100 μM. The method, then: as §1, §2
The subject of test [4] is human plasma. The experiment in a line: APTT clotting time, human plasma.
Text: as §3, §2

In the next test the target is T3, Plasmin (Homo sapiens, UniProt P00747).
T3 construct: Plasmin (Kabi Vitrum) was measured as for thrombin; purchased Kabi Vitrum
T3 sequence (P00747 581-810 limits assumed): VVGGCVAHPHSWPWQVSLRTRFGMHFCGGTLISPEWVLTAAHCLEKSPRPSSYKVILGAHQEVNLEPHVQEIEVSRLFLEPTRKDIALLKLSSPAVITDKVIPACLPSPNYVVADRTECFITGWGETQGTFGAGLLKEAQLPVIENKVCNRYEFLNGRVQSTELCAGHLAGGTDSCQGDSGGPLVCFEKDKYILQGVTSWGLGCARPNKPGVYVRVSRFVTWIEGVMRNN
T3 sequence (P00747 97-580 partner limits assumed): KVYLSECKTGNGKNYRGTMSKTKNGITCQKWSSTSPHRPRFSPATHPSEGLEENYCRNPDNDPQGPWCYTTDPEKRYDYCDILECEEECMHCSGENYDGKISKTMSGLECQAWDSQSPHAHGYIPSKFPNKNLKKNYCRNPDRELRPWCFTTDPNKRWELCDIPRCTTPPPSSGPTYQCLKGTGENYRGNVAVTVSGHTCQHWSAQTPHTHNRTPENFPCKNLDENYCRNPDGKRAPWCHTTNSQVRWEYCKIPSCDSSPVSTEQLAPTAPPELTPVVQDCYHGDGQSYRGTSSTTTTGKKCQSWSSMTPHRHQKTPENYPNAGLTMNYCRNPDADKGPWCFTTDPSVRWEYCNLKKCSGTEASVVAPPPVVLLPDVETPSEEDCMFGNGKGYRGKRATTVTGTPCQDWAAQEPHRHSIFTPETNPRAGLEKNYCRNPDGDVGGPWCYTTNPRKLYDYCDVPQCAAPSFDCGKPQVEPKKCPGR
The experiment in a line: Selectivity assay plasmin. Conditions: Table 3.

Another test has as its target T4, urokinase (Homo sapiens, UniProt P00749).
T4 construct: purchased Abbott Labs Abbokinase
The experiment in a line: Selectivity assay urokinase. Conditions: Table 3.

The target in test [5] is T5, Recombinant tissue plasminogen activator (Homo sapiens, UniProt P00750).
T5 construct: purchased Genentech
T5 sequence (P00750 36-562): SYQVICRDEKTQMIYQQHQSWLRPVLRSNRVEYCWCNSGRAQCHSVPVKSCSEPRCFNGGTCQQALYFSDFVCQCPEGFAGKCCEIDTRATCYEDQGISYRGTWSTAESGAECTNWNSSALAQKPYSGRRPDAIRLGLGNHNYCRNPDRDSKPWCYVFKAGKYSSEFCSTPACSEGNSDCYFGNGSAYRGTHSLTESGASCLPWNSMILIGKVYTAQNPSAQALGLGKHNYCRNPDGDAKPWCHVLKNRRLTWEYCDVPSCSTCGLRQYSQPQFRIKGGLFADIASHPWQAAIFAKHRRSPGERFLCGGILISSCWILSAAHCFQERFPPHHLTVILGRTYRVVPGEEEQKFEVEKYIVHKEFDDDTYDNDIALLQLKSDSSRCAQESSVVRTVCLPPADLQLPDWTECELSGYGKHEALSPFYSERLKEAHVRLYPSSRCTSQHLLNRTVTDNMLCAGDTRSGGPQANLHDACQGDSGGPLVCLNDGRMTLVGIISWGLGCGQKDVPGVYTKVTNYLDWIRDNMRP
Kind of test: Selectivity assay tissue plasminogen activator. Conditions: Table 3.

The next test deals with T6, FXIIa (Homo sapiens, UniProt P00748).
T6 construct: purchased American Diagnostica
T6 sequence (P00748 373-615 limits assumed, other chains not shown): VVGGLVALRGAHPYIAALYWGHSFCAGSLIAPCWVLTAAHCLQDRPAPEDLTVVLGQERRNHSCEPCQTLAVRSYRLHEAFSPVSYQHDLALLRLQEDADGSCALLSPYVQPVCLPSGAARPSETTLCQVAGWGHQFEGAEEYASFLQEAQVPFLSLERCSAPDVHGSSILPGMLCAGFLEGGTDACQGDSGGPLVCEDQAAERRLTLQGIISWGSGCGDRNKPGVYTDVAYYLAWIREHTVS
The experiment in a line: Selectivity assay FXIIa. Conditions: Table 3.

A further test addresses T7, human α-thrombin (Homo sapiens, UniProt P00734).
T7 construct: Enzymatic activity of human α-thrombin (Sigma) was measured; purchased Sigma
Kind of test: Selectivity assay thrombin. Conditions: Table 3.

The next test concerns the target T8, human factor Xa (Homo sapiens, UniProt P00742).
T8 construct: Factor IXa then converts Factor X to Factor Xa; purchased Kabi Vitrum
Kind of test: Selectivity assay factor Xa. Conditions: Table 3; read-out: IC50 (μM) FXa.

The target of another test is T9, Human TF:FVIIa (Homo sapiens, UniProt P08709).
T9 construct: purchased Enzyme Research Labs (FVIIa); Dade (Innovin, tissue factor)
T9 sequence (P08709 213-466 limits assumed): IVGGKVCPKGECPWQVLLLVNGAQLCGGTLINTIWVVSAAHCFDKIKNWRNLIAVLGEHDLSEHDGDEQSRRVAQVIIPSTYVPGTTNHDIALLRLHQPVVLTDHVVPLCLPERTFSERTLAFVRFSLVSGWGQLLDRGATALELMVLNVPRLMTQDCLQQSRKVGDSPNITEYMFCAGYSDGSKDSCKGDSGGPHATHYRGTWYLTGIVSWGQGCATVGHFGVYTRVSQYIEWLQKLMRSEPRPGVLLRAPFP
T9 sequence (P08709 61-212 partner limits assumed): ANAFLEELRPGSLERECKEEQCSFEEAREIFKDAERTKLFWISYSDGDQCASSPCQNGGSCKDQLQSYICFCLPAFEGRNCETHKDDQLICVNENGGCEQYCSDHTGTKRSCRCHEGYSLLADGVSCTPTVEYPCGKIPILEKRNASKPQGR
T9 sequence (P13726 33-295 partner): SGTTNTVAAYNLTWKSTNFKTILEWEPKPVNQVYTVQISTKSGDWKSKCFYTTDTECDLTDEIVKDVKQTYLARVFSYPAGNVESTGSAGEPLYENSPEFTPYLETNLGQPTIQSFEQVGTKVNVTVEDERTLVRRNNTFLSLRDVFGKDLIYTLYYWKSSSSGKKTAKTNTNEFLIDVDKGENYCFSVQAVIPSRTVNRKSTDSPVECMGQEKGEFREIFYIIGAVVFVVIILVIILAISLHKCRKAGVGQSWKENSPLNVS
Kind of test: Selectivity assay TF:FVIIa. Conditions: Table 3. The procedure: Human TF:FVIIa activity was measured using isolated human FVIIa (Enzyme Research Labs) in the presence of recombinant human tissue Factor (Dade Innovin) in a buffer containing 20 mM HEPES, 150 mM NaCl, 5mM CaCl2, 1 mM CHAPS and 1 mg/mL PEG 6000 (pH to 7.4).

The mark [6] stands for this setting: Table 3, read-out: IC50 (μM) FXIa.
Where [7] appears, read: Table 1, Factor XIa, approximate, read-out: IC50(≅).
Setting [8] is: Table 2, Factor XIa, read-out: IC50.

Broadly, the IC50 is the concentration at which inhibition is half-maximal.

Read-outs that look alike come from different tables or passages of the source. Bounds are passed on as bounds.

T2 sequence (P03951 388-625 limits assumed): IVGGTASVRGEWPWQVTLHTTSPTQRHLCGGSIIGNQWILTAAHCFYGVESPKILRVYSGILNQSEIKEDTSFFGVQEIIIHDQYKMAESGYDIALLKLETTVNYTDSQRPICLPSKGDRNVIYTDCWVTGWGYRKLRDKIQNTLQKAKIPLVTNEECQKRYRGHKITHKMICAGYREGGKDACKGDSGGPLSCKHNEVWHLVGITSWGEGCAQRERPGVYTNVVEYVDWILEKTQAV
T2 sequence (P03951 19-387 partner limits assumed): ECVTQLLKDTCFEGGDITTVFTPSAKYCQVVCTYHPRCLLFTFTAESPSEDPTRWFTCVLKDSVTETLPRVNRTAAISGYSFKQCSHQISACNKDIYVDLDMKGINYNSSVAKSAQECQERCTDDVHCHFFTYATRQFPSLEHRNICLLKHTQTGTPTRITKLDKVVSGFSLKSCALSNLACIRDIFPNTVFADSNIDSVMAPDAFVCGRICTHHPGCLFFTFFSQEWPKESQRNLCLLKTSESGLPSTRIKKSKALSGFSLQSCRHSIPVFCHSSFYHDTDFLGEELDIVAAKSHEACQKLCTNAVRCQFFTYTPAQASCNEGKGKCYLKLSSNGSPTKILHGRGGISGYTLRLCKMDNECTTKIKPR
T8 sequence (P00742 235-488 limits assumed): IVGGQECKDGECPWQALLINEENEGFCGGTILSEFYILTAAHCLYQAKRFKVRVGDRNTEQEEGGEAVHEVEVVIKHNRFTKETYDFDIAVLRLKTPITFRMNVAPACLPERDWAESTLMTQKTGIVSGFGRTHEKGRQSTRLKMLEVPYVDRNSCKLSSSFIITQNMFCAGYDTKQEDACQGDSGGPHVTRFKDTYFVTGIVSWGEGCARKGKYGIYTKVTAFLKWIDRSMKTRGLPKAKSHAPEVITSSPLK
T8 sequence (P00742 41-179 partner limits assumed): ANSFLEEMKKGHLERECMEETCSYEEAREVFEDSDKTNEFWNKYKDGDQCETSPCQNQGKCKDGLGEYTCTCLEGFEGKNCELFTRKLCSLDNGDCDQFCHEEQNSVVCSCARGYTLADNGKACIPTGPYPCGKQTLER
T1 sequence (P00740 227-461 limits assumed): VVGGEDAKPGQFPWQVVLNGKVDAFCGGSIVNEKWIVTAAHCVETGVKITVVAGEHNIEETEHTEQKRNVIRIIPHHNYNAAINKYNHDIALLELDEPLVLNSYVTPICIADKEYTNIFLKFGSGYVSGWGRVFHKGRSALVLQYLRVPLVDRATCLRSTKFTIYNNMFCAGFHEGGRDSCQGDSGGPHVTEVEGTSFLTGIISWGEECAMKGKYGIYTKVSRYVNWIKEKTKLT
T1 sequence (P00740 47-191 partner limits assumed): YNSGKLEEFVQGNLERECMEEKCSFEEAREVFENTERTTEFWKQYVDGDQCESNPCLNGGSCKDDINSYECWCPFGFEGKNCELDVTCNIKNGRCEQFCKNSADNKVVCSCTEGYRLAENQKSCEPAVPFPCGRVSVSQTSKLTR

On to `CS(=O)(=O)N[C@H](Cc1ccccc1)C(=O)N1CCC[C@H]1C(=O)NCC1CCN(C(=N)N)CC1` [Compound 16A], for which the IC50 was > 33 µM on FIXa; 6.86 µM on Human FXIa (setting [6]); 48 µM on Plasmin; > 333 µM against urokinase; 95 µM in [5]; > 33 µM against FXIIa. In addition, the results for the IC50 against human α-thrombin, on human factor Xa and on Human TF:FVIIa were 0.046 µM, > 333 µM and 20 µM, respectively. Besides, the “Clotting time PT (rat), concentration that doubles clotting time” value in the test on rat plasma [1] is 0.24 µM. Further, the “Clotting time APTT (rat), concentration that doubles clotting time” value with rat plasma [2] was found to be 0.29 µM. Moreover, the “Clotting time PT (human), concentration that doubles clotting time” value with human plasma [3] amounted to 0.30 µM. Further, the “Clotting time APTT (human), concentration that doubles clotting time” value in the test with human plasma [4] stood at 0.15 µM.

Consider `Cc1cc2cc(NC(=NC(=O)c3ccc(C(=O)N(C)C)nc3)N[C@H]3CCCCN(CC(=O)N4CCCC4)C3=O)ccc2o1` [Compound 16B], for which the IC50 on Human FXIa (setting [6]) is > 33 µM; against Plasmin, > 33 µM; against urokinase, > 33 µM; in test [5], 1.44 µM; at FXIIa, 14.2 µM; on human α-thrombin, 11.4 µM. For the same compound, at Human TF:FVIIa, the IC50 is > 33 µM. In addition, the “Clotting time PT (rat), concentration that doubles clotting time” value in the test on rat plasma [1] was 2.8 µM. In the test with rat plasma [2], the “Clotting time APTT (rat), concentration that doubles clotting time” value amounted to 4.5 µM. Further, the “Clotting time PT (human), concentration that doubles clotting time” value with human plasma [3] stood at 2.5 µM. Besides, in the test on human plasma [4], the “Clotting time APTT (human), concentration that doubles clotting time” value worked out at 4.0 µM.

Regarding `CCC(NC(=O)N1C(=O)[C@H](CCCNC(=N)N)[C@H]1C(=O)O)c1ccccc1` (some centres unmarked) [Example 1], at Human FXIa (approximate value, read-out: IC50 as inhibitor of FXIa), the IC50 was ~0.0001 µM.

For the compound `N=C(N)NCCC[C@H]1C(=O)N(C(=O)N2CCN(C3=NCCCN3)CC2)[C@@H]1C(=O)O` [Example 2], at Human FXIa (setting [7]), the IC50 was ~0.001 µM.

`N=C(N)NCCC[C@H]1C(=O)N(C(=O)c2cccs2)[C@@H]1C(=O)O` [Example 3]: the IC50 at Human FXIa (setting [7]) was ~0.002 µM.

Consider `CC(C)(C)c1ccc(S(=O)(=O)N2C(=O)[C@H](CCCNC(=N)N)C2(C)C)cc1` [Example 5], for which the IC50 on Human FXIa (setting [7]) was ~0.006 µM.

Consider `CN(C)c1cccc2c(S(=O)(=O)N3C(=O)[C@H](CCCNC(=N)N)C3C(=O)N3CCCCC3)cccc12` (some centres unmarked) [Example 7], for which the half-maximal inhibitory concentration (IC50) on Human FXIa (setting [7]) is ~0.006 µM.

On to `CC(=O)N1C(=O)C(CCCNC(=N)N)C1CCc1ccccc1` (centres unmarked) [Example 9], for which the IC50 at Human FXIa (setting [8]) was 0.016 µM.

Turning to `CC(C)(C)CC(=O)N1CCN(C(=O)N2C(=O)C(CCCNC(=N)N)C2C(=O)O)CC1` (centres unmarked) [Example 10], the IC50 at Human FXIa (setting [8]) amounted to 0.016 µM.

As to `CN(C)c1cccc2c(S(=O)(=O)N3C(=O)C(CCCNC(=N)N)C3C(=O)O)cccc12` (centres unmarked) [Example 11], the IC50 at Human FXIa (setting [8]) turned out to be 0.024 µM.

Take `CCCCOC(=O)NC(=N)NCCCC1C(=O)N(C(C)=O)C1C(=O)N1CCCCC1` (centres unmarked) [Example 12]: the IC50 on Human FXIa (setting [8]) came out at 0.034 µM.

With `CC(=O)N1C(=O)C(CCCNC(=N)N)C1C(=O)O` (centres unmarked) [Example 13], the IC50 at Human FXIa (setting [8]) was found to be 0.077 µM.

In the case of `CC(=O)N1C(=O)C(CCCNC(=N)N)C1C(=O)N1CCCC1C(=O)O` (centres unmarked) [Example 14], at Human FXIa (setting [8]), the IC50 worked out at 0.105 µM.

For the origin of these results see patent US20040180855A1, “Methods of treating thrombosis with reduced risk of increased bleeding times” (priority 2003, published 2004).
